What all share (format): biochemical
Common to all, as to settings: 30° C., pH 5.0, sodium pyrophosphate, 1-1,000 mM

For assay [1], the target named is T1, Pseudomonas aeruginosa acid phosphatase PaAPase, wild type (WT), SEQ ID NO: 1 (Pseudomonas aeruginosa, UniProt A0A0D6FFE3).
T1 construct: 217 aa form
Kind of assay: Determination of kinetic parameters (phosphorylation of L-ascorbic acid to L-ascorbate-2-phosphate), wild type. The protocol:
(§1) The activities of PaAPase and mutants thereof were determined with high-performance liquid chromatography. 500 μL of a substrate solution (500 mM L-ascorbic acid and 500 mM sodium pyrophosphate) (pH 5.0) and 5 μL of the enzyme liquid react at 30° C. for 30 min, and 95 μL of 42% phosphoric acid was added to terminate the reaction, where an activity unit was defined as the amount of enzyme required for producing 1 μmol of L-ascorbate-2-phosphate within 1 min (Table 3).
(§2) The kinetic parameters, including Vmax, Km and kcat, were calculated by measuring the generation rates of initial products of L-ascorbic acid and L-ascorbate-2-phosphate (1-1,000 mM) at different concentrations at 30° C. and under other conditions consistent with those of the determination of specific enzyme activity.

Assay [2] addresses T2, Pseudomonas aeruginosa acid phosphatase PaAPase variant PaAPaseMu1 (D135R), SEQ ID NO: 19 (Pseudomonas aeruginosa, UniProt A0A0D6FFE3, D159R).
T2 construct: 217 aa form
T2 sequence (A0A0D6FFE3 25-241 D159R): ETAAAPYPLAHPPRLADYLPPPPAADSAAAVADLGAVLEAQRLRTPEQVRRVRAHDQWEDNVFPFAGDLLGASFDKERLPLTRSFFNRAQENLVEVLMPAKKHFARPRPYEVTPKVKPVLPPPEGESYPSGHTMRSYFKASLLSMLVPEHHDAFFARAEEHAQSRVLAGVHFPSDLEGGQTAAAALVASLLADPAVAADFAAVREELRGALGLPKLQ
The experiment in a line: Determination of kinetic parameters (phosphorylation of L-ascorbic acid to L-ascorbate-2-phosphate), Mu1. The protocol: as §1, §2

The target in assay [3] is T3, Pseudomonas aeruginosa acid phosphatase PaAPase variant PaAPaseMu2 (W58P/D135R), SEQ ID NO: 21 (Pseudomonas aeruginosa, UniProt A0A0D6FFE3, D159R/W82P).
T3 construct: 217 aa form
T3 sequence (A0A0D6FFE3 25-241 W82P/D159R): T2 sequence (A0A0D6FFE3 25-241 D159R) with W58P
The experiment in a line: Determination of kinetic parameters (phosphorylation of L-ascorbic acid to L-ascorbate-2-phosphate), Mu2. The protocol:
as §1, §2

For assay [4], the target named is T4, Pseudomonas aeruginosa acid phosphatase PaAPase variant PaAPaseMu3 (Q57H/W58P/D135R), SEQ ID NO: 22 (Pseudomonas aeruginosa, UniProt A0A0D6FFE3, D159R/Q81H/W82P).
T4 construct: 217 aa form
T4 sequence (A0A0D6FFE3 25-241 Q81H/W82P/D159R): T2 sequence (A0A0D6FFE3 25-241 D159R) with Q57H, W58P

Residue numbers refer to the chain shown, from its start.

Here are results for one compound from patent publication US20220204953A1, “Mutant of Acid Phosphatase and Application Thereof” (priority 2021, published 2022).

One may read the kcat as the number of substrate molecules converted per active site and unit of time at saturation. What is called kcat/Km is the turnover number divided by the Michaelis constant.

T1 sequence (A0A0D6FFE3 entry or part of it): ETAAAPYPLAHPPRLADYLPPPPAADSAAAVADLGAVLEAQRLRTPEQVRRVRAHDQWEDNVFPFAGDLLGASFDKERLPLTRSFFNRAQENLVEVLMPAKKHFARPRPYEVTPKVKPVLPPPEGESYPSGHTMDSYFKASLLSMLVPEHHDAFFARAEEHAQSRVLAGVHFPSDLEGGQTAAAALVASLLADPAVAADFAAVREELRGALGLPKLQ

Turning to `O=C1O[C@H]([C@@H](O)CO)C(O)=C1O` [L-ascorbic acid], the kcat in assay [1] worked out at 16.3 s⁻¹; in assay [2], 18.7 s⁻¹; in assay [3], 19.2 s⁻¹; in assay [4], 20.1 s⁻¹. Also, the kcat/Km was 56.3 M⁻¹ s⁻¹ in assay [1], 76.3 M⁻¹ s⁻¹ in assay [2], 86.2 M⁻¹ s⁻¹ in assay [3] and 95.3 M⁻¹ s⁻¹ in assay [4].
